Laboratory results reported in PubChem BioAssay (NCI).
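Growth conditions: 96-well plates. Treatment: test compound, 48 hours, 5 concentrations. Analysis: linear interpolation between bracketing concentrations; unreached endpoints set to highest concentration. GI50 = concentration required for 50% inhibition of growth. TGI is the concentration that stops growth completely.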

Columns and labels:
Experiment in all cases: NCI tumour cell line growth inhibition, 48 h
OVCAR-3 ovarian = test system: OVCAR-3 ovarian
CCRF-CEM leukemia = test system: CCRF-CEM leukemia
HCT-15 colon = test system: HCT-15 colon
K-562 leukemia = test system: K-562 leukemia
RPMI-8226 leukemia = test system: RPMI-8226 leukemia
SNB-19 CNS = test system: SNB-19 CNS
UACC-257 melanoma = test system: UACC-257 melanoma
BT-549 breast = test system: BT-549 breast
A498 renal = test system: A498 renal
SF-295 CNS = test system: SF-295 CNS
DU-145 prostate = test system: DU-145 prostate
MALME-3M melanoma = test system: MALME-3M melanoma
U251 CNS = test system: U251 CNS
CAKI-1 renal = test system: CAKI-1 renal
UACC-62 melanoma = test system: UACC-62 melanoma
ACHN renal = test system: ACHN renal
786-0 renal = test system: 786-0 renal
LOX IMVI melanoma = test system: LOX IMVI melanoma
COLO 205 colon = test system: COLO 205 colon
IGROV1 ovarian = test system: IGROV1 ovarian
HCT-116 colon = test system: HCT-116 colon
SK-MEL-2 melanoma = test system: SK-MEL-2 melanoma
SW-620 colon = test system: SW-620 colon
M14 melanoma = test system: M14 melanoma
SK-MEL-28 melanoma = test system: SK-MEL-28 melanoma
RXF 393 renal = test system: RXF 393 renal
MCF7 breast = test system: MCF7 breast
MDA-MB-231 breast = test system: MDA-MB-231 breast
HOP-92 NSCLC = test system: HOP-92 NSCLC
NCI-H460 lung = test system: NCI-H460 lung
OVCAR-8 ovarian = test system: OVCAR-8 ovarian
EKVX NSCLC = test system: EKVX NSCLC
SNB-75 CNS = test system: SNB-75 CNS
HS 578T breast = test system: HS 578T breast
TK-10 renal = test system: TK-10 renal
OVCAR-4 ovarian = test system: OVCAR-4 ovarian
HT29 colon = test system: HT29 colon
MOLT-4 leukemia = test system: MOLT-4 leukemia
SF-268 CNS = test system: SF-268 CNS
MDA-MB-435 = test system: MDA-MB-435
SK-OV-3 ovarian = test system: SK-OV-3 ovarian
OVCAR-5 ovarian = test system: OVCAR-5 ovarian
SK-MEL-5 melanoma = test system: SK-MEL-5 melanoma
NCI-H23 lung = test system: NCI-H23 lung
T-47D breast = test system: T-47D breast
HCC-2998 colon = test system: HCC-2998 colon
SF-539 CNS = test system: SF-539 CNS
SN12C renal = test system: SN12C renal
NCI-H522 lung = test system: NCI-H522 lung
PC-3 prostate = test system: PC-3 prostate
NCI/ADR-RES ovarian = test system: NCI/ADR-RES ovarian
NCI-H226 lung = test system: NCI-H226 lung
HL-60(TB) leukemia = test system: HL-60(TB) leukemia
A549 NSCLC = test system: A549 NSCLC
HOP-62 NSCLC = test system: HOP-62 NSCLC
KM12 colon = test system: KM12 colon
SR leukemia = test system: SR leukemia
UO-31 renal = test system: UO-31 renal
MDA-N = test system: MDA-N

SMILES: Cc1cc(N(CCCl)CCCl)ccc1C=Nc1cccnc1
- GI50 (OVCAR-3 ovarian): 5.33 µM
- TGI (OVCAR-3 ovarian): 31.7 µM
- GI50 (CCRF-CEM leukemia): 6.75 µM
- TGI (CCRF-CEM leukemia): > 100 µM
- GI50 (HCT-15 colon): 27.5 µM
- TGI (HCT-15 colon): > 100 µM
- GI50 (K-562 leukemia): 34.7 µM
- TGI (K-562 leukemia): > 100 µM
- GI50 (RPMI-8226 leukemia): 21.1 µM
- TGI (RPMI-8226 leukemia): > 100 µM
- GI50 (SNB-19 CNS): 59.9 µM
- TGI (SNB-19 CNS): > 100 µM
- GI50 (UACC-257 melanoma): 3.7 µM
- TGI (UACC-257 melanoma): 23.2 µM
- GI50 (BT-549 breast): 12.8 µM
- TGI (BT-549 breast): 53.9 µM
- GI50 (A498 renal): 0.237 µM
- TGI (A498 renal): 0.833 µM
- GI50 (SF-295 CNS): 8.68 µM
- TGI (SF-295 CNS): > 95.7 µM
- GI50 (DU-145 prostate): 4.62 µM
- TGI (DU-145 prostate): 42.9 µM
- GI50 (MALME-3M melanoma): 22.4 µM
- TGI (MALME-3M melanoma): > 100 µM
- GI50 (U251 CNS): 18.5 µM
- TGI (U251 CNS): > 100 µM
- GI50 (CAKI-1 renal): 2.46 µM
- TGI (CAKI-1 renal): > 43.1 µM
- GI50 (UACC-62 melanoma): 1.59 µM
- TGI (UACC-62 melanoma): 16.1 µM
- GI50 (ACHN renal): 5.38 µM
- TGI (ACHN renal): > 100 µM
- GI50 (786-0 renal): 6.6 µM
- TGI (786-0 renal): > 69.1 µM
- GI50 (LOX IMVI melanoma): 12.7 µM
- TGI (LOX IMVI melanoma): > 100 µM
- GI50 (COLO 205 colon): 15.1 µM
- TGI (COLO 205 colon): > 70.8 µM
- GI50 (IGROV1 ovarian): 4.97 µM
- TGI (IGROV1 ovarian): > 84.1 µM
- GI50 (HCT-116 colon): 22.7 µM
- TGI (HCT-116 colon): > 100 µM
- GI50 (SK-MEL-2 melanoma): 7.57 µM
- TGI (SK-MEL-2 melanoma): > 50.1 µM
- GI50 (SW-620 colon): 61.2 µM
- TGI (SW-620 colon): > 100 µM
- GI50 (M14 melanoma): 22.5 µM
- TGI (M14 melanoma): > 100 µM
- GI50 (SK-MEL-28 melanoma): > 77.8 µM
- TGI (SK-MEL-28 melanoma): > 100 µM
- GI50 (RXF 393 renal): 11.6 µM
- TGI (RXF 393 renal): 42.5 µM
- GI50 (MCF7 breast): 1.8 µM
- TGI (MCF7 breast): > 100 µM
- GI50 (MDA-MB-231 breast): 67.6 µM
- TGI (MDA-MB-231 breast): > 100 µM
- GI50 (HOP-92 NSCLC): 13.9 µM
- TGI (HOP-92 NSCLC): 68.2 µM
- GI50 (NCI-H460 lung): 0.369 µM
- TGI (NCI-H460 lung): > 47.7 µM
- GI50 (OVCAR-8 ovarian): 28.3 µM
- TGI (OVCAR-8 ovarian): > 100 µM
- GI50 (EKVX NSCLC): 30 µM
- TGI (EKVX NSCLC): 98.9 µM
- GI50 (SNB-75 CNS): 11.5 µM
- TGI (SNB-75 CNS): > 100 µM
- GI50 (HS 578T breast): 37.7 µM
- TGI (HS 578T breast): > 100 µM
- GI50 (TK-10 renal): 10.4 µM
- TGI (TK-10 renal): > 66 µM
- GI50 (OVCAR-4 ovarian): 22.4 µM
- TGI (OVCAR-4 ovarian): > 100 µM
- GI50 (HT29 colon): > 79 µM
- TGI (HT29 colon): > 100 µM
- GI50 (MOLT-4 leukemia): 2.05 µM
- TGI (MOLT-4 leukemia): > 80.9 µM
- GI50 (SF-268 CNS): 11.3 µM
- TGI (SF-268 CNS): > 100 µM
- GI50 (MDA-MB-435): 37.8 µM
- TGI (MDA-MB-435): > 100 µM
- GI50 (SK-OV-3 ovarian): 7.57 µM
- TGI (SK-OV-3 ovarian): > 59.3 µM
- GI50 (OVCAR-5 ovarian): 1.86 µM
- TGI (OVCAR-5 ovarian): 15.9 µM
- GI50 (SK-MEL-5 melanoma): 14.6 µM
- TGI (SK-MEL-5 melanoma): 41.7 µM
- GI50 (NCI-H23 lung): 6.93 µM
- TGI (NCI-H23 lung): > 100 µM
- GI50 (T-47D breast): 1.6 µM
- TGI (T-47D breast): > 73.2 µM
- GI50 (HCC-2998 colon): 16.8 µM
- TGI (HCC-2998 colon): 32 µM
- GI50 (SF-539 CNS): 4.81 µM
- TGI (SF-539 CNS): > 100 µM
- GI50 (SN12C renal): 10.6 µM
- TGI (SN12C renal): > 100 µM
- GI50 (NCI-H522 lung): 14.3 µM
- TGI (NCI-H522 lung): 38.1 µM
- GI50 (PC-3 prostate): 22.9 µM
- TGI (PC-3 prostate): > 100 µM
- GI50 (NCI/ADR-RES ovarian): 12.1 µM
- TGI (NCI/ADR-RES ovarian): > 95.4 µM
- GI50 (NCI-H226 lung): 0.306 µM
- TGI (NCI-H226 lung): 1.79 µM
- GI50 (HL-60(TB) leukemia): 1.58 µM
- TGI (HL-60(TB) leukemia): 30 µM
- GI50 (A549 NSCLC): 14.3 µM
- TGI (A549 NSCLC): > 100 µM
- GI50 (HOP-62 NSCLC): 10.5 µM
- TGI (HOP-62 NSCLC): > 100 µM
- GI50 (KM12 colon): 42.6 µM
- TGI (KM12 colon): > 100 µM
- GI50 (SR leukemia): 0.695 µM
- TGI (SR leukemia): > 100 µM
- GI50 (UO-31 renal): 12.4 µM
- TGI (UO-31 renal): > 86.7 µM

SMILES: CCOC(=O)c1nc2c3c(ncn2n1)Oc1c(c(-c2ccccc2)nn1-c1ccccc1)C3c1ccc(OC)c(OC)c1 (stereo not given)
- TGI (OVCAR-3 ovarian): > 100 µM
- TGI (CCRF-CEM leukemia): > 100 µM
- TGI (HCT-15 colon): > 100 µM
- TGI (K-562 leukemia): > 100 µM
- TGI (RPMI-8226 leukemia): > 100 µM
- TGI (SNB-19 CNS): 82.4 µM
- TGI (UACC-257 melanoma): > 100 µM
- TGI (BT-549 breast): > 100 µM
- TGI (SF-295 CNS): > 100 µM
- TGI (DU-145 prostate): > 100 µM
- TGI (MALME-3M melanoma): > 100 µM
- TGI (U251 CNS): > 100 µM
- TGI (CAKI-1 renal): > 100 µM
- TGI (UACC-62 melanoma): > 100 µM
- TGI (ACHN renal): > 100 µM
- TGI (786-0 renal): > 100 µM
- TGI (LOX IMVI melanoma): > 100 µM
- TGI (COLO 205 colon): > 100 µM
- TGI (IGROV1 ovarian): > 100 µM
- TGI (HCT-116 colon): > 100 µM
- TGI (SK-MEL-2 melanoma): > 100 µM
- TGI (MDA-N): > 100 µM
- TGI (SW-620 colon): > 100 µM
- TGI (M14 melanoma): > 100 µM
- TGI (SK-MEL-28 melanoma): > 100 µM
- TGI (RXF 393 renal): 91.4 µM
- TGI (MCF7 breast): > 100 µM
- TGI (MDA-MB-231 breast): > 100 µM
- TGI (HOP-92 NSCLC): > 100 µM
- TGI (NCI-H460 lung): > 100 µM
- TGI (OVCAR-8 ovarian): 82.5 µM
- TGI (EKVX NSCLC): > 100 µM
- TGI (SNB-75 CNS): 66.6 µM
- TGI (HS 578T breast): 38 µM
- TGI (TK-10 renal): > 100 µM
- TGI (OVCAR-4 ovarian): 30.4 µM
- TGI (HT29 colon): > 100 µM
- TGI (MOLT-4 leukemia): > 100 µM
- TGI (SF-268 CNS): 71.1 µM
- TGI (MDA-MB-435): > 100 µM
- TGI (SK-OV-3 ovarian): > 100 µM
- TGI (OVCAR-5 ovarian): > 100 µM
- TGI (SK-MEL-5 melanoma): > 100 µM
- TGI (NCI-H23 lung): > 100 µM
- TGI (HCC-2998 colon): > 100 µM
- TGI (SF-539 CNS): 26.8 µM
- TGI (SN12C renal): > 100 µM
- TGI (NCI-H522 lung): > 100 µM
- TGI (PC-3 prostate): > 100 µM
- TGI (NCI/ADR-RES ovarian): > 100 µM
- TGI (A549 NSCLC): > 100 µM
- TGI (HOP-62 NSCLC): 48.5 µM
- TGI (SR leukemia): > 100 µM
- TGI (UO-31 renal): > 100 µM
